Assay results published in patent publication US6660804B1, “Cyclodextrin polymers and/or cyclodextrin derivatives with complexing properties and ion-exchange properties and method for the production thereof” (Universite des Sciences et Technologies de Lille, priority 1999, dated 2003).

Columns and labels:
[1] = Diffusion of 2-naphthol through 12000-14000 d dialysis membrane (complexing); assay type: physicochemical; settings: 50 ml 10^-3 M 2-naphthol plus 0.2837 g β cyclodextrin or 0.3317 g copolymer inside membrane, 250 ml distilled water outside, after 76 hours of dialysis; 2-naphthol alone 0.2865
Method: Three solutions of 50 ml of 10−3 M 2-naphthol were introduced into 12000-14000 d dialysis membranes. The first fraction contained 2-naphthol alone; the second contained the dye and 0.2837 g of β cyclodextrin (i.e., 5×10^−3 mol/l); the third contained the dye and 0.3317 g of the soluble cyclodextrin copolymer obtained using the method described in Example 1. The three membranes with the three different dye solutions were each immersed in 250 ml of distilled water. Diffusion of the dye from the interior of the membrane into the distilled water surrounding the membrane was monitored by determining the absorbance of the external solution at 327 nm. The absorbance values obtained for the external solutions for the three fractions after 76 hours of dialysis were 0.2865 for the first fraction, 0.3030 for the second fraction and only 0.2574 for the third fraction.

[2] = Diffusion of CI Basic Red 22 through 12000-14000 d dialysis membrane (complexing); assay type: physicochemical; settings: 50 ml 10^-4 M dye plus 0.2837 g additive inside membrane, 250 ml distilled water outside, after 5 hours of dialysis; dye alone 0.2722
Method: Three solutions of 50 ml of 10^−4 M CI Basic Red 22 basic dye were introduced into 12000-14000 d dialysis membranes. The first fraction contained the dye alone; the second contained the dye and 0.2837 g of β cyclodextrin (i.e., 5×10^−3 mol/l); the third contained the dye and 0.2837 g of soluble cyclodextrin copolymer obtained using the method described in Example 1. The three membranes with the three different dye solutions were each immersed in 250 ml of distilled water. Diffusion of the dye from the interior of the membrane into the distilled water surrounding the membrane was monitored by determining the absorbance of the external solution at 540 nanometers (nm). The absorbance values obtained for the external solutions for the three fractions after 5 hours of dialysis were 0.2722 for the first fraction, 0.1873 for the second fraction and only 0.0237 for the third fraction.

absorbance of the external solution at 327 nm [1]: 0.3030 | absorbance of the external solution at 540 nm [2]: 0.1873
SMILES: OC[C@H]1O[C@@H]2O[C@H]3[C@H](O)[C@@H](O)[C@@H](O[C@H]4[C@H](O)[C@@H](O)[C@@H](O[C@H]5[C@H](O)[C@@H](O)[C@@H](O[C@H]6[C@H](O)[C@@H](O)[C@@H](O[C@H]7[C@H](O)[C@@H](O)[C@@H](O[C@H]8[C@H](O)[C@@H](O)[C@@H](O[C@H]1[C@H](O)[C@H]2O)O[C@@H]8CO)O[C@@H]7CO)O[C@@H]6CO)O[C@@H]5CO)O[C@@H]4CO)O[C@@H]3CO [β cyclodextrin]
